The target of this assay is T1, DEAD-box helicase 3 X-linked (DDX3X) (Homo sapiens, UniProt O00571).
T1 construct: residues 1–580, N-terminal 6His tag
The assay can be described thus: ITC (one-site model); supported by multi-wavelength AUC, ATPase assay (IC50 […]) and RNA unwinding assay (IC50 […]). The class given is binding.

Drawing on article PMC7016805, “RK-33 Is a Broad-Spectrum Antiviral Agent That Targets DEAD-Box RNA Helicase DDX3X” (Cells, 2020), this text covers Kd for 1 compound.

Molecules are shown by their SMILES.

T1 sequence (O00571 1-580): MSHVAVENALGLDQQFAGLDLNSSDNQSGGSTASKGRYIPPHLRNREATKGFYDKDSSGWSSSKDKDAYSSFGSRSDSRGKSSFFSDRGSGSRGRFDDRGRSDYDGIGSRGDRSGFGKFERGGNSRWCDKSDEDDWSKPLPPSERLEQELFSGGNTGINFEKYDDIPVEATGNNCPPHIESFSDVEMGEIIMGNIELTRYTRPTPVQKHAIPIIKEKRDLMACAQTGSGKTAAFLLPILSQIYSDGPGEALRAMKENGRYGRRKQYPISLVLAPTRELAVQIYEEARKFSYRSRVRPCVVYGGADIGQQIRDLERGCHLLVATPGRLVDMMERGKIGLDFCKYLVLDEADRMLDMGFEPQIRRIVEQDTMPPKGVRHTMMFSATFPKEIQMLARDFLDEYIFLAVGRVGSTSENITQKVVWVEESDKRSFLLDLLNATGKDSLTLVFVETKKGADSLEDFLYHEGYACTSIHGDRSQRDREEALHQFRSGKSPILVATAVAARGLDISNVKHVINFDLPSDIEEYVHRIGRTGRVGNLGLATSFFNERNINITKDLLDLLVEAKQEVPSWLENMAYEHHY

The Kd is the free concentration of one partner at which half of the binding sites on the other are occupied at equilibrium, for simple one-to-one binding. Lower therefore signals higher affinity. The compound `COc1ccc(Cn2cnc3c4ncn(Cc5ccc(OC)cc5)c4nc(=O)nc32)cc1` [RK-33] displayed a Kd of 33 µM. That is a double-digit micromolar value.
